Measured values from patent US4229204A, “Trifluoromethylphenyl isoxazolyl benzoates” (Monsanto Company, priority 1978, dated 1980).

What was measured:
Assay type in all cases: in vivo
[1] = test system: Morningglory; assay: Post-emergent herbicidal test; note: ranges in brackets are in %
Procedure: (§1) The post-emergent tests were conducted as follows:
(§2) The active ingredients are applied in spray form to two or three week old specimens of various plant species. The spray, a solution or wettable powder suspension containing the appropriate rate of active ingredient to give the desired test rate and a surfactant, is applied to the plants.
(§3) The compounds were also tested by utilizing the above procedure on the following plant species: […]

[2] = test system: Smartweed; assay: Post-emergent herbicidal test; note: ranges in brackets are in %
Procedure: as §1, §2, §3

[3] = test system: Downy Brome; assay: Post-emergent herbicidal test; note: ranges in brackets are in %
Procedure: as §1, §2, §3

[4] = test system: Johnsongrass; assay: Post-emergent herbicidal test; settings: 4 WAT, 11.2 kg/h; note: ranges in brackets are in %
Procedure: as §1, §2, §3

[5] = test system: Quackgrass; assay: Post-emergent herbicidal test; settings: 4 WAT, 11.2 kg/h; note: ranges in brackets are in %
Procedure: as §1, §2, §3

[6] = test system: Crabgrass; assay: Pre-emergent herbicidal test; settings: 4 WAT; note: ranges in brackets are in %
Procedure: (§4) The pre-emergent test was conducted as follows:
(§5) A good grade of top soil was placed in aluminum pans and compacted to a depth of three-eighths to one-half inch from the top of the pan. On the top of the soil was placed a predetermined number of seeds or vegetative propagules of various plant species which were pressed into the soil surface. The soil required to level fill the pans after seeding or adding vegetative propagules was weighed into a pan. A known amount of the active ingredient applied in a solvent or as a wettable powder and the soil were thoroughly mixed, and used as a cover layer for prepared pans.
(§6) The herbicidal rating was obtained by means of a fixed scale based on the percent injury of each plant species. The ratings are defined as follows: […]

[7] = test system: Wild Buckwheat; assay: Pre-emergent herbicidal test; settings: 4 WAT; note: ranges in brackets are in %
Procedure: as §4, §5, §6

[8] = test system: Rice; assay: Pre-emergent herbicidal test; settings: 4 WAT; note: ranges in brackets are in %
Procedure: as §4, §5, §6

[9] = test system: Hemp Sesbania; assay: Pre-emergent herbicidal test; settings: 4 WAT; note: ranges in brackets are in %
Procedure: as §4, §5, §6

[10] = test system: Panicum Spp.; assay: Pre-emergent herbicidal test; settings: 4 WAT; note: ranges in brackets are in %
Procedure: as §4, §5, §6

[11] = test system: Sorghum; assay: Pre-emergent herbicidal test; settings: 4 WAT; note: ranges in brackets are in %
Procedure: as §4, §5, §6

[12] = test system: Wheat; assay: Pre-emergent herbicidal test; settings: 4 WAT; note: ranges in brackets are in %
Procedure: as §4, §5, §6

[13] = test system: Soybean; assay: Pre-emergent herbicidal test; settings: 4 WAT; note: ranges in brackets are in %
Procedure: as §4, §5, §6

[14] = test system: Sugarbeet; assay: Pre-emergent herbicidal test; settings: 4 WAT; note: ranges in brackets are in %
Procedure: as §4, §5, §6

[15] = test system: cheyenne wheat; assay: Growth regulation of wheat (Table XI)
Excerpt: Table XI summarizes observations made when the compound of Example Number 3 was applied to cheyenne wheat.

[16] = test system: grain sorghum; assay: Growth regulation of grain sorghum (Table IX); settings: 250 ppm
Excerpt: The compound of Example Number 3 was also applied to four-week old grain sorghum at a rate of 250 ppm.

[17] = test system: harber barley; assay: Growth regulation of barley (Table X)
Excerpt: Table X, below, summarizes observations made when the compound of Example Number 3 was applied to harber barley.

[18] = test system: Bluebell rice; assay: Growth regulation of rice; settings: four-week old rice, 250 ppm, both at 3 weeks and 7 weeks after treatment
Excerpt: The compound of Example Number 3 was applied to four-week old Bluebell rice at a rate of 250 ppm.

[19] = test system: Morningglory; assay: Pre-emergent herbicidal test; note: ranges in brackets are in %
Procedure: as §4, §5, §6, §3

[20] = test system: Velvetleaf; assay: Pre-emergent herbicidal test; note: ranges in brackets are in %
Procedure: as §4, §5, §6, §3

[21] = test system: Barnyardgrass; assay: Pre-emergent herbicidal test; note: ranges in brackets are in %
Procedure: as §4, §5, §6, §3

[22] = test system: Smartweed; assay: Pre-emergent herbicidal test; note: ranges in brackets are in %
Procedure: as §4, §5, §6, §3

[23] = test system: Downy Brome; assay: Pre-emergent herbicidal test; note: ranges in brackets are in %
Procedure: as §4, §5, §6, §3

[24] = test system: Yellow Nutsedge; assay: Pre-emergent herbicidal test; settings: 2 WAT, 11.2 kg/h; note: ranges in brackets are in %
Procedure: as §4, §5, §6, §3

[25] = test system: Lambsquarters; assay: Pre-emergent herbicidal test; note: ranges in brackets are in %
Procedure: as §4, §5, §6, §3

[26] = test system: Johnsongrass; assay: Pre-emergent herbicidal test; settings: 2 WAT, 11.2 kg/h; note: ranges in brackets are in %
Procedure: as §4, §5, §6, §3

[27] = test system: Cocklebur; assay: Pre-emergent herbicidal test; note: ranges in brackets are in %
Procedure: as §4, §5, §6, §3

[28] = test system: Quackgrass; assay: Pre-emergent herbicidal test; settings: 2 WAT, 11.2 kg/h; note: ranges in brackets are in %
Procedure: as §4, §5, §6, §3

[29] = test system: Canada Thistle; assay: Pre-emergent herbicidal test; settings: 2 WAT, 11.2 kg/h; note: ranges in brackets are in %
Procedure: as §4, §5, §6, §3

[30] = test system: mixture of Kentucky Bluegrass, Creeping Red Fescue and Chewings Fescue; assay: Growth regulation of lawn grasses (Table VIII)
Procedure: The compound of Example Number 3 was tested on various lawn grasses as follows. A mixture of Kentucky Bluegrass, Creeping Red Fescue and Chewings Fescue were planted in a good grade of top soil in plastic pots. Seven to ten days after germination, the plants were treated with the active ingredient to which a surfactant had been added by spraying the plants until they were wet with various concentrations.

[31] = time of treatment 42 days, 10 ppm, 3 weeks after treatment
[32] = time of treatment 42 days, 50 ppm, 3 weeks after treatment
[33] = time of treatment 42 days, 250 ppm, 3 weeks after treatment

COC(=O)c1ccccc1-c1cc(-c2cccc(C(F)(F)F)c2)no1 [Example 3, Methyl 2-[3-[3-(Trifluoromethyl)-Phenyl]-5-Isoxazolyl]Benzoate]
herbicidal rating ([1]; 2 WAT, 1.12 kg/h): 1 (25-49) | herbicidal rating ([1]; 4 WAT, 5.60 kg/h): 1 (25-49) | herbicidal rating ([1]; 4 WAT, 11.2 kg/h): 2 (50-74) | herbicidal rating ([2]; 2 WAT, 1.12 kg/h): 1 (25-49) | herbicidal rating ([2]; 4 WAT, 5.60 kg/h): 1 (25-49) | herbicidal rating ([2]; 4 WAT, 11.2 kg/h): 4 (100) | herbicidal rating ([3]; 2 WAT, 1.12 kg/h): 0 (0-24) | herbicidal rating ([3]; 4 WAT, 5.60 kg/h): 0 (0-24) | herbicidal rating ([3]; 4 WAT, 11.2 kg/h): 2 (50-74) | herbicidal rating [4]: 2 (50-74) | herbicidal rating [5]: 3 (75-99) | herbicidal rating ([6]; 1.12 kg/h): 2 (50-74) | herbicidal rating ([6]; 5.60 kg/h): 2 (50-74) | herbicidal rating ([7]; 1.12 kg/h): 2 (50-74) | herbicidal rating ([7]; 5.60 kg/h): 3 (75-100) | herbicidal rating ([8]; 1.12 kg/h): 3 (75-100) | herbicidal rating ([8]; 5.60 kg/h): 3 (75-100) | herbicidal rating ([9]; 1.12 kg/h): 3 (75-100) | herbicidal rating ([9]; 5.60 kg/h): 3 (75-100) | herbicidal rating ([10]; 1.12 kg/h): 2 (50-74) | herbicidal rating ([10]; 5.60 kg/h): 3 (75-100) | herbicidal rating ([11]; 1.12 kg/h): 2 (50-74) | herbicidal rating ([11]; 5.60 kg/h): 3 (75-100) | herbicidal rating ([12]; 1.12 kg/h): 1 (25-49) | herbicidal rating ([12]; 5.60 kg/h): 2 (50-74) | herbicidal rating ([13]; 1.12 kg/h): 2 (50-74) | herbicidal rating ([13]; 5.60 kg/h): 3 (75-100) | herbicidal rating ([14]; 1.12 kg/h): 2 (50-74) | herbicidal rating ([14]; 5.60 kg/h): 3 (75-100) | Plant Height ([15]; time of treatment 15 days, 250 ppm, 3 weeks after treatment): 80 % of Control | Plant Height ([15]; time of treatment 15 days, 250 ppm, 6 weeks after treatment): 93 % of Control | Plant Height [15, 31]: 113 % of Control | Plant Height [15, 32]: 112 % of Control | Plant Height [15, 33]: 109 % of Control | Plant Height ([16]; 3 weeks after treatment): 91 % of Control | Other Observations ([16]; 7 weeks after treatment): Necrosis. | Plant Height ([16]; 7 weeks after treatment): 81 % of Control | Plant Height ([17]; time of treatment 16 days, 250 ppm, 3 weeks after treatment): 90 % of Control | Plant Height ([17]; time of treatment 16 days, 250 ppm, 6 weeks after treatment): 97 % of Control | Plant Height [17, 31]: 93 % of Control | Plant Height [17, 32]: 106 % of Control | Plant Height [17, 33]: 90 % of Control | Observations compared with the control [18]: stature reduction and tillering | herbicidal rating ([19]; 2 WAT, 11.2 kg/h): 2 (50-74) | herbicidal rating ([19]; 4 WAT, 1.12 kg/h): 2 (50-74) | herbicidal rating ([19]; 4 WAT, 5.60 kg/h): 3 (75-100) | herbicidal rating ([20]; 2 WAT, 11.2 kg/h): 2 (50-74) | herbicidal rating ([20]; 4 WAT, 1.12 kg/h): 1 (25-49) | herbicidal rating ([20]; 4 WAT, 5.60 kg/h): 2 (50-74) | herbicidal rating ([21]; 2 WAT, 11.2 kg/h): 3 (75-100) | herbicidal rating ([21]; 4 WAT, 1.12 kg/h): 3 (75-100) | herbicidal rating ([21]; 4 WAT, 5.60 kg/h): 3 (75-100) | herbicidal rating ([22]; 2 WAT, 11.2 kg/h): 3 (75-100) | herbicidal rating ([22]; 4 WAT, 1.12 kg/h): 3 (75-100) | herbicidal rating ([22]; 4 WAT, 5.60 kg/h): 3 (75-100) | herbicidal rating ([23]; 2 WAT, 11.2 kg/h): 2 (50-74) | herbicidal rating ([23]; 4 WAT, 1.12 kg/h): 1 (25-49) | herbicidal rating ([23]; 4 WAT, 5.60 kg/h): 2 (50-74) | herbicidal rating [24]: 2 (50-74) | herbicidal rating ([25]; 2 WAT, 11.2 kg/h): 3 (75-100) | herbicidal rating ([25]; 4 WAT, 1.12 kg/h): 1 (25-49) | herbicidal rating ([25]; 4 WAT, 5.60 kg/h): 2 (50-74) | herbicidal rating [26]: 2 (50-74) | herbicidal rating ([27]; 2 WAT, 11.2 kg/h): 2 (50-74) | herbicidal rating ([27]; 4 WAT, 1.12 kg/h): 1 (25-49) | herbicidal rating ([27]; 4 WAT, 5.60 kg/h): 2 (50-74) | herbicidal rating [28]: 3 (75-100) | herbicidal rating [29]: 3 (75-100) | Height ([30]; 10 ppm, 3 weeks after treatment): 102 % of Control | Height ([30]; 10 ppm, 9 weeks after treatment): 93 % of Control | Height ([30]; 50 ppm, 3 weeks after treatment): 94 % of Control | Height ([30]; 50 ppm, 9 weeks after treatment): 86 % of Control | Height ([30]; 250 ppm, 3 weeks after treatment): 66 % of Control | Height ([30]; 250 ppm, 9 weeks after treatment): 57 % of Control
